According to patent US6875438B2, “Preparations for topical administration of substances having antiandrogenic activity” (Aventis Pharma Deutschland GmbH, priority 2002, dated 2005):

Assays:
[1] = Microscopic investigations for crystallization of active ingredient in the preparation; assay type: physicochemical; settings: lipid nanoparticle preparations
[2] = tested on: cells of the dermal papilla of occipital scalp; test: Hydrolysis of compound 2 to compound 1 in cultivated dermal papilla cells (HPLC of media extracts); assay type: in vitro ADME, human; settings: skin cells, in particular cells of the dermal papilla
Procedure: Monolayer cultures of juvenile prepuce keratinocytes and fibroblasts and of cells of the dermal papilla of occipital scalp were incubated with compound 2 in a concentration of 10^−5 M under standard conditions (5% CO2, 37° C.) for 24 h. The cell culture medium was then extracted with chloroform. The organic phase was evaporated and the residue was taken up in acetonitrile and investigated by HPLC analysis for its content of compounds 1 and 2.

CCCCCCCCCCCCCC(=O)OCCCCN1C(=O)N(c2ccc(C#N)c(C(F)(F)F)c2)C(=O)C1(C)C [compound 2]
Crystallization of compound 2 in the preparation (microscopy) [1]: no indications of crystallization | Conversion of compound 2 into compound 1 (in words) [2]: significant conversion
